Article PMC9368227, “Investigation of Radiotracer Metabolic Stability In Vitro with CYP-Overexpressing Hepatoma Cell Lines” (Cells, 2022)

Key:
HepG2 CYP1A2 = experiment: Competitive coincubation of [18F]1 with competitors, HepG2 CYP1A2; settings: 1 h; competitor 1 or 10 µM
Protocol: (§1) Radio thin-layer chromatography (radio-TLC) was carried out on reversed-phase TLC plates (ALUGRAM RP-18W/UV254 from Macherey-Nagel, Düren, Germany) with a mobile phase of 45% ACN in water containing 0.1% trifluoroacetic acid. The samples (2 µL) were spotted onto the TLC plate. The line of origin and the front line were labeled with 1/5 of the sample activity concentration. To track the Rf value of the intact radiotracer, each TLC was spotted with the intact tracer as reference in the middle. Detection of the activity signals was achieved after 10–30 min development on radioluminographic imaging plates (FUJIFILM, Tokyo, Japan) and subsequent readout with Fuji BAS 5000® or Amersham™ Typhoon™ from GE Healthcare (Uppsala, Sweden). The resulting chromatographic profile was analyzed and integrated with the help of AIDA Image Analysis Software (version 5.1). For data depiction, the fraction of each species (intact radiotracer, metabolite, [^18F]fluoride) was plotted.
(§2) Incubations were conducted for up to 2 h in a 96-well plate in KHB with a total incubation volume of 50 µL and an ethanol concentration of 0.4%. For the incubation with radiotracers, an activity of 100–200 kBq/well at the start of the experiment was used.
(§3) Our last interest within this study was to test if the tracer itself could function as an indicator for the conversion of other substrates acting via inhibition of or competition with the CYP enzymes. In this regard, alternative substrates were added to the incubation mixtures with [^18F]1. The investigated substrates covered testosterone, caffeine, progesterone, compound 3, tebufelone, and RWJ63556 [44] (10 µM for all substances). Furthermore, the influence of testosterone on the metabolic turnover of [^18F]1 was investigated over a concentration range of 1–50 µM.
Figure 7 Coincubation of [^18F]1 and different competitors with (A) HepG2 CYP1A2 and (B) HepG2 CYP2C19. […] Each competitor/inhibitor was incubated with [^18F]1 for 1 h followed by radio-TLC analysis. Activity concentrations of 94–197 kBq/well (1.9–3.9 MBq/mL) were used at start of experiment, which correspond to a concentration of 120–125 nM. Statistical analysis performed with Dunnett’s multiple comparison (post hoc test) according to the intact tracer amount (* p < 0.05; *** p < 0.001; **** p < 0.0001; n = 4).

HepG2 CYP2C19 = experiment: Competitive coincubation of [18F]1 with competitors, HepG2 CYP2C19; settings: 1 h; competitor 10 µM
Protocol: as §1, §2, §3
Figure 7 Coincubation of [^18F]1 and different competitors with (A) HepG2 CYP1A2 and (B) HepG2 CYP2C19. […] Each competitor/inhibitor was incubated with [^18F]1 for 1 h followed by radio-TLC analysis. […]

## CC(=O)[C@H]1CC[C@H]2[C@@H]3CCC4=CC(=O)CC[C@]4(C)[C@H]3CC[C@]12C [progesterone]
HepG2 CYP1A2
  Effect of coincubation on metabolic profile / intact [18F]1 (in words): no change in the metabolic profile
HepG2 CYP2C19
  Increase of intact tracer [18F]1 versus incubation without additional substances: twofold
